From the supplement of paper PMC11061612

Experiments:
EW-3 (Ewing's Sarcoma) = test: Bliss excess, mean over the matrix (fraction); higher = more synergy
In short: (§1)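 After 24 hours at 37°C and 5% CO2 in 1536-well plates, cells in DMEM/F12 or RPMI plus 10% FBS received two-drug dose matrices for 72 hours. Viability came from CellTiter-Glo 2.0 luminescence and was scaled as inhibition, anchored at 0 by vehicle wells and at 1 by blank wells. Combination Emax is taken as the second-highest inhibition in the matrix, and Bliss excess as the observed combination effect less EA + EB − EA·EB, with EA and EB the single-agent effects.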

[1] = test system: HuP-T3 (Pancreatic Carcinoma); test: as above
In short: as §1

[2] = test system: NCI-H1573 (Lung Adenocarcinoma); test: as above
In short: as §1

[3] = test system: NCI-N87 (Gastric Carcinoma); test: as above
In short: as §1

[4] = test system: OCUB-M (Breast Carcinoma); test: as above
In short: as §1

U-87-MG (Glioblastoma) [5] = test: as above
In short: as §1

[6] = test system: VMRC-LCD (Lung Adenocarcinoma); test: as above
In short: as §1

[7] = test system: EBC-1 (Squamous Cell Lung Carcinoma); test: combination Emax (second highest fraction inhibited in the dose matrix, 72 h); higher = more inhibition; extreme values may be limits of the assay
In short: as §1

[8] = test system: EMC-BAC-2 (Non-Small Cell Lung Carcinoma); test: as above
In short: as §1

EW-13 (Ewing's Sarcoma) = test: as above
In short: as §1

GI-1 (Glioblastoma) = test: as above
In short: as §1

IMR-5 (Neuroblastoma) = test: as above
In short: as §1

[9] = test system: KINGS-1 (Low Grade Glioma); test: as above
In short: as §1

[10] = test system: KLE (Endometrial Carcinoma); test: as above
In short: as §1

[11] = test system: KYSE-150 (Esophageal Squamous Cell Carcinoma); test: as above
In short: as §1

[12] = test system: KYSE-50 (Esophageal Squamous Cell Carcinoma); test: as above
In short: as §1

[13] = test system: NCI-H513 (Other Solid Carcinomas); test: as above
In short: as §1

[14] = test system: OCUB-M (Breast Carcinoma); test: as above
In short: as §1

[15] = test system: PFSK-1 (Other Solid Carcinomas); test: as above
In short: as §1

U-87-MG (Glioblastoma) [16] = test: as above
In short: as §1
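For Bliss excess, mean over the matrix in this document: after 72 h of two-drug dosing.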

## CC1(C)CCC(CN2CCN(c3ccc(C(=O)NS(=O)(=O)c4ccc(NCC5CCOCC5)c([N+](=O)[O-])c4)c(Oc4cnc5[nH]ccc5c4)c3)CC2)=C(c2ccc(Cl)cc2)C1 [Venetoclax] + Cn1cnc2c(F)c(Nc3ccc(Br)cc3Cl)c(C(=O)NOCCO)cc21 [Selumetinib] (first compound max 1 µM, 7x7, partner max 3 µM)
EW-3 (Ewing's Sarcoma)
  Bliss excess: -0.0413
[1]
  Bliss excess: -0.0403
[2]
  Bliss excess: -0.0431
[3]
  Bliss excess: -0.065
[4]
  Bliss excess: -0.0137
U-87-MG (Glioblastoma) [5]
  Bliss excess: -0.0889
[6]
  Bliss excess: -0.0386
[7]
  combination Emax: 0.768
[8]
  combination Emax: 0.347
EW-13 (Ewing's Sarcoma)
  combination Emax: 0.213
GI-1 (Glioblastoma)
  combination Emax: 0.179
IMR-5 (Neuroblastoma)
  combination Emax: 0.221
[9]
  combination Emax: 0.262
[10]
  combination Emax: 0.276
[11]
  combination Emax: 0.273
[12]
  combination Emax: 0.133
[13]
  combination Emax: 0.228
[14]
  combination Emax: 0.286
[15]
  combination Emax: 0.171
U-87-MG (Glioblastoma) [16]
  combination Emax: 0.223
